These results are taken from patent publication US20110191876A1, “GLYPHOSATE TOLERANT PERENNIAL RYEGRASS NAMED 'JACKLIN 501'” (J.R. SIMPLOT COMPANY, priority 2009, published 2011).

Molecules are shown by their SMILES.

In this assay the test system is perennial ryegrass 96-3047. Description: glyphosate applied at termination of the Maryland turf trial, plot survival. In kind it is in vivo, Lolium perenne L. The following applies: perennial ryegrass 96-3047 plot, Maryland trial 1999, glyphosate at 2-quarts per acre; only plot not killed. The text has this:
In 1999, during the termination of the Maryland trial, 96-3047 was the only plot in the trial that was not killed when glyphosate at the rate of 2-quarts per acre was applied. Survival in the plot was estimated at 30% and plugs were pulled, coded as 99-0089, and 200 plants of 99-0089 were planted in an isolation block in the 1999 Post Falls, Id. nursery.

On to `O=C(O)CNCP(=O)(O)O` [glyphosate, N-(phosphonomethyl) glycine], for which the “Survival in the plot” value is given as around 30%.
